# Measurements taken from patent US10517889B2, “Modulators of SMAD7 expression” (Ionis Pharmaceuticals, Inc., priority 2017, dated 2019).
# Strand notation (5' to 3'): a small letter for the sugar, then the base; units joined by * are phosphorothioate-linked, units joined directly phosphodiester-linked; [ ] holds rarer units or linkages, { } end groups; capitals alone tell only the bases. k = constrained ethyl (cEt); [5mC] = 5-methylcytosine; d = 2'-deoxy (DNA)
# System: human SMAD7 mRNA
# Assay: Antisense inhibition of human SMAD7 mRNA expression in Hep3B cells by 3-10-3 cEt gapmers, 10,000 nM, electroporation (Example 2)
# Format: cell-based
# Conditions: Hep3B cells, 10,000 nM antisense oligonucleotide, electroporation, approximately 24 hours, RT-PCR primer probe set RTS5062, relative to untreated control cells
# Procedure: Antisense oligonucleotides were designed to target human SMAD7 mRNA and were tested for their effects on SMAD7 mRNA expression in vitro. The antisense oligonucleotides were tested in a series of experiments that had similar culture conditions, as described below. ION 771576, described in the studies above and which is a 5-10-5 MOE gapmer, was also included in these assays. Cultured Hep3B cells at a density of 20,000 cells per well were transfected using electroporation with 10,000 nM antisense oligonucleotide. After a treatment period of approximately 24 hours, RNA was isolated from the cells and SMAD7 mRNA levels were measured by quantitative real-time PCR. Primer probe set RTS5062 was used to measure human SMAD7 mRNA levels. SMAD7 mRNA levels were adjusted according to total RNA content, as measured by RIBOGREEN®. Results are presented as percent inhibition of SMAD7 mRNA expression, relative to untreated control cells.
# The newly designed chimeric antisense oligonucleotides in the Tables below were designed as 3-10-3 cEt gapmers. The gapmers are 16 nucleosides in length, wherein the central gap segment comprises often 2′-deoxynucleosides and is flanked by wing segments on the 5′ direction and the 3′ direction comprising three nucleosides each. Each nucleoside in the 5′ wing segment and each nucleoside in the 3′ wing segment has a cEt sugar modification. The internucleoside linkages throughout each gapmer are phosphorothioate (P═S) linkages. All cytosine residues throughout each gapmer are 5-methylcytosines.
# “Start site” indicates the 5′-most nucleoside to which the gapmer is targeted in the human gene sequence. “Stop site” indicates the 3′-most nucleoside to which the gapmer is targeted human gene sequence. […] Some of the oligonucleotides presented were complementary to SMAD7 mRNA sequences RefSeqNo. NM_001190821.1 (designated herein as SEQ ID NO: 3) or RefSeqNo. NM_001190822.1 (designated herein as SEQ ID NO: 4), and are presented in a separate table shown below.
row,Substance,% Inhibition [%]
1,800013 (kA*kA*kA*dG*dG*dA*dG*dA*dG*dG*dA*d[5mC]*dT*kT*k[5mC]*kA; antisense) [compound 800013],56
2,798819 (kT*k[5mC]*k[5mC]*d[5mC]*dA*dG*dT*dA*dT*dG*d[5mC]*d[5mC]*dA*k[5mC]*k[5mC]*kA; antisense) [compound 798819],0
3,798908 (k[5mC]*kG*k[5mC]*dG*dG*d[5mC]*dT*dA*d[5mC]*d[5mC]*dG*dG*d[5mC]*kT*kG*kT; antisense) [compound 798908],0

# Same assay, conditions: Hep3B cells, electroporation with 10,000 nM antisense oligonucleotide, approximately 24 hours, RTS5062, percent inhibition of SMAD7 mRNA relative to untreated control cells
row,Substance,% Inhibition [%]
1,799314 (antisense k[5mC]*kA*kA*dG*dA*dT*d[5mC]*d[5mC]*dA*dT*d[5mC]*dT*dT*kT*kA*kA) [compound 799314],0

# Same assay, conditions: Hep3B cells, electroporation with 10,000 nM antisense oligonucleotide, approximately 24 hours, SMAD7 mRNA by RT-PCR (RTS5062), relative to untreated control cells
row,Substance,% Inhibition [%]
1,798684 (antisense k[5mC]*kG*kT*dT*dT*dG*d[5mC]*d[5mC]*dT*dG*d[5mC]*dT*dA*kA*kG*kG) [compound 798684],51
2,790479 (kG*kG*k[5mC]*dA*dG*d[5mC]*dA*dG*dG*dA*dG*dG*d[5mC]*kA*k[5mC]*kG; antisense) [compound 790479],43
3,800082 (antisense kG*k[5mC]*kA*dG*dA*d[5mC]*d[5mC]*dG*dG*dT*dA*dT*dT*kA*kA*k[5mC]) [compound 800082],12
4,830185 (antisense kG*k[5mC]*k[5mC]*dA*d[5mC]*d[5mC]*dA*dA*d[5mC]*dG*dG*dT*dT*kG*k[5mC]*k[5mC]) [compound 830185],27

# Same assay, conditions: Hep3B cells, electroporation with 10,000 nM antisense oligonucleotide, approximately 24 hours, primer probe set RTS5062, relative to untreated control cells
Substance,% inhibition of SMAD7 mRNA expression [%],% Inhibition [%]
799438 (antisense kA*kA*kG*dA*dG*dA*dG*dA*dA*dA*d[5mC]*dG*d[5mC]*kA*kG*kT) [compound 799438],32,
799479 (antisense kT*kG*k[5mC]*d[5mC]*d[5mC]*dT*dT*d[5mC]*dT*dG*d[5mC]*dA*dG*kT*kG*kG) [compound 799479],24,
798676 (antisense k[5mC]*k[5mC]*kA*dT*dG*dA*dA*dG*dA*dA*dG*dT*d[5mC]*kG*kG*kG) [compound 798676],21,
799244 (kG*kG*kG*d[5mC]*d[5mC]*dA*d[5mC]*dT*dG*dG*dT*dG*dT*kT*k[5mC]*kG; antisense) [compound 799244],8,
799231 (kG*k[5mC]*kT*dA*dG*dG*dT*dG*dA*dT*dA*dA*d[5mC]*kA*k[5mC]*k[5mC]; antisense) [compound 799231],8,
799171 (antisense kT*kG*k[5mC]*dT*d[5mC]*dA*dT*dT*dG*dA*dG*d[5mC]*dT*kA*kA*kG) [compound 799171],30,
798725 (antisense kT*k[5mC]*kG*d[5mC]*dA*d[5mC]*d[5mC]*dG*d[5mC]*d[5mC]*dT*dT*dG*k[5mC]*k[5mC]*k[5mC]) [compound 798725],29,
799080 (antisense kA*kG*kG*dG*dA*dG*dA*dT*d[5mC]*d[5mC]*dA*dG*dG*kA*kG*k[5mC]) [compound 799080],,56
799100 (antisense kG*kA*kA*dA*dA*dA*d[5mC]*d[5mC]*dT*dG*dA*dT*dG*kT*k[5mC]*kA) [compound 799100],,38

# Same assay, conditions: Hep3B cells, electroporation, 10,000 nM antisense oligonucleotide, approximately 24 hours, RTS5062, relative to untreated control cells
row,Substance,% inhibition of SMAD7 mRNA expression [%]
1,790710 (kG*kG*kG*dA*dA*dA*dT*dG*dT*dT*d[5mC]*dT*dA*k[5mC]*k[5mC]*kT; antisense) [compound 790710],15
2,799660 (antisense kT*kG*kG*dG*dA*dG*d[5mC]*dA*d[5mC]*dT*dT*d[5mC]*dT*kT*kT*kT) [compound 799660],35
3,799305 (antisense k[5mC]*kA*kT*dG*dA*dA*dA*dG*dA*d[5mC]*dA*dA*dA*k[5mC]*k[5mC]*kA) [compound 799305],0

# Same assay, conditions: SMAD7 mRNA, Hep3B cells, electroporation with 10,000 nM antisense oligonucleotide, approximately 24 hours, primer probe set RTS5062, relative to untreated control cells
row,Substance,% Inhibition [%]
1,829870 (antisense k[5mC]*k[5mC]*kA*dG*dT*dG*dT*dG*dG*d[5mC]*dG*dG*dA*k[5mC]*kT*kT) [compound 829870],19
2,829839 (kA*k[5mC]*kA*d[5mC]*dA*dG*dT*dA*dG*dA*dG*d[5mC]*d[5mC]*kT*k[5mC]*k[5mC]; antisense) [compound 829839],8
